# Literature values, collected in patent publication US11246476B2, “Method for visualizing tissue with an ICG dye composition during ablation procedures” (CardioFocus, Inc., priority 2014, dated 2022).
# Assays:
# [1] = after injection into the patient's arm (e.g., through an IV)
# [2] = in vivo
# [3] = test system: plasma proteins
compound,measurement,setting,value
"CC1(C)C(/C=C/C=C/C=C/C=C2\N(CCCCS(=O)(=O)[O-])c3ccc4ccccc4c3C2(C)C)=[N+](CCCCS(=O)(=O)[O-])c2ccc3ccccc3c21.[Na+] [ICG, Indocyanine green]",time to travel through the bloodstream to the target tissue,[1],less than 1 minute
same,route of removal from circulation,[2],removed from circulation exclusively by the liver to bile juice
same,binding to plasma proteins,[3],binds tightly to plasma proteins
